Assay results taken from patent publication US9346746B2, “R(+)-N-formyl-propargyl-aminoindan” (Teva Pharmaceutical Industries, Ltd., priority 2011, dated 2016).
Read-outs that look alike come from different tables or passages of the source.

What was measured:
[1] = in vivo; cited from earlier work
[2] = melt phase, Air
Procedure: Samples intended to degrade under an inert atmosphere were flushed with nitrogen for 5 minutes before closing with a stopper.
The samples were introduced into a pre-heated oven and held at a constant temperature of 78 and 90° C. for 24, 72 or 137 hrs. After completion of the treatment the samples were refrigerated and analyzed.

[3] = room temperature, initial peroxide 3%
Procedure: Then peroxide and water were added; complete dissolution of solid was achieved by shaking.
After holding at room temperature for 10 minutes to 20 hrs (oxidation time), the solutions were diluted with mobile phase and analyzed by HPLC.

[4] = RH=100%, room temperature, 7 days
[5] = for R(+)-N-formyl-PAI, % of Rasagiline: 90° C., air, 1 mg/ml
Procedure: An additional series of degradation experiments was performed at 90° C. in order to achieve even higher degradation of Rasagiline in aqueous solutions.
For this series the treatment time was 1 and 2 weeks, and phosphate-citrate buffer (pH=2.6) and phosphate buffer (pH=8.0) were used.
The solutions were exposed to heat in an oven under an air atmosphere in amber glass vials closed with Teflon stoppers and covered with aluminum foil for protection from light.
The samples were introduced into an oven pre-heated to 90° C. and held at this temperature for 7 or 14 days. After completion of the treatment the samples were refrigerated at 2-8° C. and analyzed.

[6] = 1 mg/ml, air, Ethanol, 78 °C, 168 hrs
Procedure: The solutions were exposed to heating in oven under air atmosphere in amber glass vials closed with Teflon stoppers and covered with aluminum foil for protection from light. After completion of the treatment the samples were refrigerated at 2-8° C. and analyzed later using HPLC.

R(+)-N-formyl-PAI, % of Rasagiline ([2]; 78 deg. C., 24 hrs): 0.14 % of Rasagiline
R(+)-N-formyl-PAI, % of Rasagiline ([2]; 78 deg. C., 72 hrs): 0.10 % of Rasagiline
R(+)-N-formyl-PAI, % of Rasagiline ([2]; 90 deg. C., 24 hrs): 0.08 % of Rasagiline
R(+)-N-formyl-PAI, % of Rasagiline ([2]; 90 deg. C., 72 hrs): 0.07 % of Rasagiline
R(+)-N-formyl-PAI, % of Rasagiline ([2]; 90 deg. C., 137 hrs): 0.07 % of Rasagiline
R(+)-N-formyl-PAI, % of Rasagiline ([3]; oxidation time 5:00 hr:min): 0.17 % of Rasagiline
R(+)-N-formyl-PAI, % of Rasagiline ([3]; oxidation time 20:00 hr:min): 0.23 % of Rasagiline
R(+)-N-formyl-PAI after humidity stress [4]: not detected
R(+)-N-formyl-PAI, % of Rasagiline ([5]; Acetate buffer pH = 4.1, 1 week): 0.05 % of Rasagiline
R(+)-N-formyl-PAI, % of Rasagiline ([5]; Phosphate buffer pH = 6.0, 1 week): 0.07 % of Rasagiline
R(+)-N-formyl-PAI, % of Rasagiline ([5]; Phosphate buffer pH = 6.0, 2 weeks): 0.16 % of Rasagiline
R(+)-N-formyl-PAI, % of Rasagiline ([5]; Phosphate buffer pH = 8.0, 1 week): 0.22 % of Rasagiline
R(+)-N-formyl-PAI, % of Rasagiline ([5]; Phosphate buffer pH = 8.0, 2 weeks): 0.19 % of Rasagiline
R(+)-N-formyl-PAI, % of Rasagiline ([5]; Phosphate-citrate buffer 3.6, 1 week): 0.13 % of Rasagiline
R(+)-N-formyl-PAI, % of Rasagiline ([5]; Phosphate-citrate buffer 3.6, 2 weeks): 0.11 % of Rasagiline
R(+)-N-formyl-PAI, % of Rasagiline ([5]; Phosphate-citrate buffer pH = 2.6, 1 week): 0.17 % of Rasagiline
R(+)-N-formyl-PAI, % of Rasagiline ([5]; Phosphate-citrate buffer pH = 2.6, 2 weeks): 0.26 % of Rasagiline
R(+)-N-formyl-PAI found in the solutions ([5]; aqueous solutions at 90° C., summary statement): above 0.1 % area of Rasagiline
R(+)-N-formyl-PAI, % of Rasagiline [6]: <0.04 % of Rasagiline
Compound: C#CCN[C@@H]1CCc2ccccc21 [Rasagiline base, R(+)-N-propargyl-1-aminoindan]
absolute bioavailability [1]: about 36%
